Test results as given in US9474777B2, “Plant extract and the process for treating hepatic fibrosis and liver cancer” (Development Center for Biotechnology, priority 2013, dated 2016).

Assays:
[1] = test system: diethylnitrosamine (DEN)-induced liver fibrosis and liver cancer; experiment: DEN-induced liver fibrosis and liver cancer model; format: in vivo, Wistar rats
Text: Specifically, five-to-six weeks old Wistar rats were obtained from the animal center at the National Taiwan University Medical School. The rats were given 100 ppm DEN drinking water, and they were weighed weekly at feeding times. […] The feeding of DEN was continued for 9 weeks, which is sufficient to induce the occurrence of liver cirrhosis and liver cancer. Liver cancers were removed from the rats for cancer recurrence study.

[2] = test system: recurrence of liver cirrhosis and liver cancers after removal of DEN-induced tumor; experiment: Recurrence model after removal of DEN-induced tumor; format: in vivo, Wistar rats; details: pirfenidone 200 mg/kg/day
Description: Specifically, five-to-six weeks old Wistar rats were obtained from the animal center at the National Taiwan University Medical School. The rats were given 100 ppm DEN drinking water, and they were weighed weekly at feeding times. […] The feeding of DEN was continued for 9 weeks, which is sufficient to induce the occurrence of liver cirrhosis and liver cancer. Liver cancers were removed from the rats for cancer recurrence study. The test samples (GP-T) were tested at two different concentrations and administered to the rats for four weeks (from the ninth to the thirteenth week). Pirfenidone was used as a positive control. In the tests, each group included 6-8 rats. The tests were conducted using the rat model and different concentrations of the GP test samples in the food to assess their effects on liver fibrosis and liver cancer recurrence. Male five-to-six weeks old Wistar rats were obtained from the animal center at the National Taiwan University Medical School. The rats were fed drinking water containing 100 ppm carcinogen, diethylnitrosamine (DEN). During the feeding period, the rats were weighed weekly. The concentrations of DEN were increased according to the body weight increases. After continuous feeding for 9 weeks, DEN was sufficient to induce liver cirrhosis and liver cancer in rats. The liver cancers were removed by surgery after the 9 week period. Then, the rats were treated with two different doses of the test drugs (GP-T) for four weeks (from the ninth week to the thirteenth week). Some rats were given pirfenidone as positive control. In this experiments, each group has n=6-8 rats. This experiment uses a rat model, coupled with feeding the rats with different doses of the test drugs, to evaluate the impacts of the test drugs on the recurrence of liver cirrhosis and liver cancers.

| SMILES | Survival Rate ([1]; sorafenib 30 mg/kg, 6 weeks, DEN rats) [%] | number of activated astrocytes (α-SMA staining) ([1]; sorafenib group (S), 30 mg/kg) | prophylactic effect on the recurrence of carcinogenesis after tumor removal [2] | hydroxyproline content in liver ([2]; FIG. 14D) | carcinogenesis presented by GST-p(+) density ([2]; four weeks after tumor ablation) |
| --- | --- | --- | --- | --- | --- |
| CNC(=O)c1cc(Oc2ccc(NC(=O)Nc3ccc(Cl)c(C(F)(F)F)c3)cc2)ccn1 [Sorafenib] | 100 | significantly reduced number of activated astrocytes | – | – | – |
| Cc1ccc(=O)n(-c2ccccc2)c1 [pirfenidone] | – | – | no prophylactic effect | decreased significantly | decreased |
